Reference: paper PMC7913148, “Anti-Cholinesterase Combination Drug Therapy as a Potential Treatment for Alzheimer’s Disease” (Brain Sciences, 2021)
Where a name gives a salt, the structure may show the parent alone.

How the values were obtained:
[1] = test system: SH-SY5Y neuroblastoma cells; assay: MTT cytotoxicity assay; assay type: cell-based, human; details: SH-SY5Y, MTT, 48 h; significant change from control
Experimental: (§1) A MTT assay was used to assess the cytotoxicity of either the individual drugs or dual-drug combinations using the SH-SY5Y neuroblastoma cell line. SH-SY5Y cells were seeded in 96-well plates (passage #15) at a cell density of 3 × 10^4 cells/well in DMEM containing 10% FBS. […] Plates were incubated for 4 h at 37 °C, before removal of the media and replacement with 1:1 (v/v) isopropanol:DMSO. […] Cell viability of cells treated with drugs was quantified by comparison to untreated control cells, set at 100% viability.
(§2) Values generated for IC50 and for the dual-drug CI were determined using CompuSyn software. […] For cell viability assays, a one-way ANOVA was performed to determine significant changes after treatments compared to control cell viability, set at 100%.

MTT cytotoxicity assay = assay type: cell-based, human; details: human, SH-SY5Y neuroblastoma cells; read-out: Cell Cytotoxicity Log IC50 (converted)
Experimental: as §1, §2

[2] = biological target: T1, Torpedo californica acetylcholinesterase (tcAChE) (Tetronarce californica, UniProt P04058); assay: biochemical; details: individual drug; Torpedo californica AChE (tc); read-out: Acetycholinesterase Inhibition (IC50)
T1 construct: purchased Sigma-Aldrich (Poole, UK)
T1 sequence (P04058 22-586): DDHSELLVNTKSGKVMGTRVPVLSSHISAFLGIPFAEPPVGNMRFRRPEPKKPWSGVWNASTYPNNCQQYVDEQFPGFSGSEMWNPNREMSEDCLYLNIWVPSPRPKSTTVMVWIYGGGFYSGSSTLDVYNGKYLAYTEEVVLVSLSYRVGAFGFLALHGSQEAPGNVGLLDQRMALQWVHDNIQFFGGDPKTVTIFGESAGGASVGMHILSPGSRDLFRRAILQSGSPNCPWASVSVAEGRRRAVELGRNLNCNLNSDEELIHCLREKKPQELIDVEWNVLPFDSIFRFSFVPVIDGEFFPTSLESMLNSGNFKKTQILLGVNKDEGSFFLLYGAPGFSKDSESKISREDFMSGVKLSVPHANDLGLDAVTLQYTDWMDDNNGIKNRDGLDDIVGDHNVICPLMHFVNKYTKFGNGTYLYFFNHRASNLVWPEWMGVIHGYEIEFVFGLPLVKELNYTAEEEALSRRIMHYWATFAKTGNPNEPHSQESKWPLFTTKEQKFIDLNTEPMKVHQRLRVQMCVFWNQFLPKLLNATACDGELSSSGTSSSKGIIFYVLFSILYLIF
Experimental: A microtiter plate version of the Ellman’s assay was used to determine the activity of human and Torpedo californica acetylcholinesterase enzymes [27]. Assays were undertaken in the presence of either individual drugs or two-drug combinations. Each assay data point within a 96-well plate contained 40 µL of 0.01 M DTNB, 46 µL of 0.1 M (pH 8.0) phosphate buffer, 2 µL of 0.075 M ATCI substrate, and 10 µL of drug or dual-drug combination. […] Enzymatic cleavage of the ATCI substrate was initiated by addition of 2 µL of 0.5 U/mL AChE enzyme. […] Under these assay conditions, a final color change was reached (results not included) such that an end-point assay measurement was taken [29].
These scoping experiments enabled us to quantify an approximate IC50 for subsequent dose-response experiments. […] These concentrations were also used for dual-drug combination experiments. Experiments undertaken in the absence of inhibitor were designated as 100% enzymatic activity. Assays were performed in duplicates from which a mean was calculated.
Percentage inhibition of AChE from in vitro assays in response to application of individual or dual-drug ChEIs were calculated using CompuSyn software (http://www.combosyn.com/index.html). […]

[3] = compared to tacrine or berberine; cited from earlier work

Structure (SMILES)	concentration needed to reduce cell viability (induce toxicity) [1]	IC50 at 48 h (MTT cytotoxicity assay) [µg/mL]	IC50 [2] [µM]	oral bioavailability [3]
COc1ccc2cc3[n+](cc2c1OC)CCc1cc2c(cc1-3)OCO2 [Ber, berberine hydrochloride]	≥ 1 µM	955	3.23	
Nc1c2c(nc3ccccc13)CCCC2 [Tac, tacrine hydrochloride]	at least 10 µM	339		
COc1ccc2c3c1O[C@H]1C[C@@H](O)C=C[C@@]31CCN(C)C2 [Gal, galantamine hydrobromide]	≥ 100 µM	12600		relatively high
